Laboratory results: US20170051149A1, “AZOARYLS AS REVERSIBLY MODULATABLE TUBULIN INHIBITORS” (ECOLE NORMALE SUPERIEURE DE LYON, priority 2014, published 2017)

System: tubulin
Assay: turbidimetric tubulin polymerisation assay with irradiation
Assay type: biochemical
Conditions: for tubulin polymerisation inhibition: 50 and 25 μM
Description: Turbidimetric tubulin polymerisation assays were performed as described in the literature^[29], following the increase in absorbance at 340 nm, but with the addition of irradiation supplied by the monochromator setup described in Part B. Two wavelengths were chosen for each compound, λE->Z (chosen to effect bulk trans->cis isomerisation, typically 390 nm), and λZ->E (chosen to effect bulk cis->trans isomerisation, typically 505 nm). The raw absorbance A(t) could be more clearly discussed by first correcting for any change in azoaryl absorbance over time by subtracting the absorbance of a control run performed without tubulin, yielding the corrected absorbance A*(t), and then taking its derivative R=dA*(t)/dt. Experiments were performed under six sets of conditions to illustrate the light control of tubulin polymerisation inhibition effected by the compounds of the invention: (a) in the dark (typical result: large R at the start decreasing rapidly over time), or (b) with constant irradiation at λE->Z (typical result: small R throughout the experiment), or (c) with constant irradiation at λZ->E (typical result: moderate R at the start decreasing slowly over time), or (d) with irradiation at λE->Z for an initial period then darkness (typical result: initial period with small R, then R increases after a while), or (e) with irradiation at λE->Z for a given period (typically 30 min) then irradiation at λZ->E (typical result: 30 minutes with small R, then R increases quickly to a moderate value which decreases slowly over time), or (f) with irradiation at λE->Z for a given period (usually 30 min) then a short irradiation at λZ->E (usually 30 seconds) then darkness (typical result: 30 minutes with small R, then R increases quickly to a moderate-to-large value which decreases slowly over time); the last three conditions required correction of A(t) to A*(t) to reveal the changes in absorption which were due only to tubulin polymerisation. It would be costly to determine light-dependent in vitro tubulin polymerisation IC50 values for each compound, eg. under protocols (a) and (b) (and/or (c)). This was not performed here since it was considered that such parameters have little predictive value in their intended complex biological settings, especially in light of the importance of biodistribution, tubulin-binding kinetics and lability (rather than thermodynamic binding strength) for tubulin disruption in biological settings.
Table 3 below illustrates typical results from experiments of type (a) (“DARK”) and (b) (“390 nm”) as described above, with compound (I.1) at concentrations well above the IC50 for the toxic regime, compared to a PBS-only control CTRL (no I.1 present).

COc1ccc(N=Nc2cc(OC)c(OC)c(OC)c2)cc1O [I.1, 2-methoxy-5-((3,4,5-trimethoxyphenyl)diazenyl)phenol]
A(λ = 340 nm) (25 μM, 390 nm, 0.0 min): 0.0000 | A(λ = 340 nm) (25 μM, 390 nm, 0.5 min): −0.0026 | A(λ = 340 nm) (25 μM, 390 nm, 1.0 min): −0.0022 | A(λ = 340 nm) (25 μM, 390 nm, 1.5 min): −0.0022 | A(λ = 340 nm) (25 μM, 390 nm, 2.0 min): −0.0010 | A(λ = 340 nm) (25 μM, 390 nm, 3.0 min): 0.0004 | A(λ = 340 nm) (25 μM, 390 nm, 3.5 min): 0.0029 | A(λ = 340 nm) (25 μM, 390 nm, 4.0 min): 0.0027 | A(λ = 340 nm) (25 μM, 390 nm, 4.5 min): 0.0034 | A(λ = 340 nm) (25 μM, 390 nm, 5.0 min): 0.0100 | A(λ = 340 nm) (25 μM, 390 nm, 5.5 min): 0.0094 | A(λ = 340 nm) (25 μM, 390 nm, 6.0 min): 0.0132 | A(λ = 340 nm) (25 μM, 390 nm, 6.5 min): 0.0174 | A(λ = 340 nm) (25 μM, 390 nm, 7.0 min): 0.0171 | A(λ = 340 nm) (25 μM, 390 nm, 7.5 min): 0.0222 | A(λ = 340 nm) (25 μM, 390 nm, 8.0 min): 0.0241 | A(λ = 340 nm) (25 μM, 390 nm, 8.5 min): 0.0259 | A(λ = 340 nm) (25 μM, 390 nm, 9.0 min): 0.0288 | A(λ = 340 nm) (25 μM, 390 nm, 9.5 min): 0.0313 | A(λ = 340 nm) (25 μM, 390 nm, 10.0 min): 0.0341 | A(λ = 340 nm) (25 μM, 390 nm, 10.5 min): 0.0358 | A(λ = 340 nm) (25 μM, 390 nm, 11.0 min): 0.0402 | A(λ = 340 nm) (25 μM, 390 nm, 11.5 min): 0.0413 | A(λ = 340 nm) (25 μM, 390 nm, 12.0 min): 0.0443 | A(λ = 340 nm) (25 μM, 390 nm, […]): −0.0001 | A(λ = 340 nm) (25 μM, DARK, 0.0 min): 0.0000 | A(λ = 340 nm) (25 μM, DARK, 0.5 min): 0.0001 | A(λ = 340 nm) (25 μM, DARK, 1.0 min): −0.0016 | A(λ = 340 nm) (25 μM, DARK, 1.5 min): 0.0018 | A(λ = 340 nm) (25 μM, DARK, 2.0 min): 0.0119 | A(λ = 340 nm) (25 μM, DARK, 3.0 min): 0.0492 | A(λ = 340 nm) (25 μM, DARK, 3.5 min): 0.0689 | A(λ = 340 nm) (25 μM, DARK, 4.0 min): 0.0851 | A(λ = 340 nm) (25 μM, DARK, 4.5 min): 0.0984 | A(λ = 340 nm) (25 μM, DARK, 5.0 min): 0.1073 | A(λ = 340 nm) (25 μM, DARK, 5.5 min): 0.1133 | A(λ = 340 nm) (25 μM, DARK, 6.0 min): 0.1150 | A(λ = 340 nm) (25 μM, DARK, 6.5 min): 0.1212 | A(λ = 340 nm) (25 μM, DARK, 7.0 min): 0.1249 | A(λ = 340 nm) (25 μM, DARK, 7.5 min): 0.1228 | A(λ = 340 nm) (25 μM, DARK, 8.0 min): 0.1250 | A(λ = 340 nm) (25 μM, DARK, 8.5 min): 0.1259 | A(λ = 340 nm) (25 μM, DARK, 9.0 min): 0.1240 | A(λ = 340 nm) (25 μM, DARK, 9.5 min): 0.1276 | A(λ = 340 nm) (25 μM, DARK, 10.0 min): 0.1276 | A(λ = 340 nm) (25 μM, DARK, 10.5 min): 0.1255 | A(λ = 340 nm) (25 μM, DARK, 11.0 min): 0.1290 | A(λ = 340 nm) (25 μM, DARK, 11.5 min): 0.1299 | A(λ = 340 nm) (25 μM, DARK, 12.0 min): 0.1333 | A(λ = 340 nm) (25 μM, DARK, […]): 0.0274 | A(λ = 340 nm) (50 μM, 390 nm, 0.0 min): 0.0000 | A(λ = 340 nm) (50 μM, 390 nm, 0.5 min): 0.0014 | A(λ = 340 nm) (50 μM, 390 nm, 1.0 min): 0.0020 | A(λ = 340 nm) (50 μM, 390 nm, 1.5 min): 0.0033 | A(λ = 340 nm) (50 μM, 390 nm, 2.0 min): 0.0027 | A(λ = 340 nm) (50 μM, 390 nm, 3.0 min): 0.0066 | A(λ = 340 nm) (50 μM, 390 nm, 3.5 min): 0.0074 | A(λ = 340 nm) (50 μM, 390 nm, 4.0 min): 0.0100 | A(λ = 340 nm) (50 μM, 390 nm, 4.5 min): 0.0084 | A(λ = 340 nm) (50 μM, 390 nm, 5.0 min): 0.0122 | A(λ = 340 nm) (50 μM, 390 nm, 5.5 min): 0.0166 | A(λ = 340 nm) (50 μM, 390 nm, 6.0 min): 0.0163 | A(λ = 340 nm) (50 μM, 390 nm, 6.5 min): 0.0172 | A(λ = 340 nm) (50 μM, 390 nm, 7.0 min): 0.0213 | A(λ = 340 nm) (50 μM, 390 nm, 7.5 min): 0.0209 | A(λ = 340 nm) (50 μM, 390 nm, 8.0 min): 0.0221 | A(λ = 340 nm) (50 μM, 390 nm, 8.5 min): 0.0268 | A(λ = 340 nm) (50 μM, 390 nm, 9.0 min): 0.0268 | A(λ = 340 nm) (50 μM, 390 nm, 9.5 min): 0.0293 | A(λ = 340 nm) (50 μM, 390 nm, 10.0 min): 0.0320 | A(λ = 340 nm) (50 μM, 390 nm, 10.5 min): 0.0318 | A(λ = 340 nm) (50 μM, 390 nm, 11.0 min): 0.0327 | A(λ = 340 nm) (50 μM, 390 nm, 11.5 min): 0.0333 | A(λ = 340 nm) (50 μM, 390 nm, 12.0 min): 0.0359 | A(λ = 340 nm) (50 μM, 390 nm, […]): 0.0052 | A(λ = 340 nm) (50 μM, DARK, 0.0 min): 0.0000 | A(λ = 340 nm) (50 μM, DARK, 0.5 min): 0.0010 | A(λ = 340 nm) (50 μM, DARK, 1.0 min): 0.0014 | A(λ = 340 nm) (50 μM, DARK, 1.5 min): 0.0034 | A(λ = 340 nm) (50 μM, DARK, 2.0 min): 0.0128 | A(λ = 340 nm) (50 μM, DARK, 3.0 min): 0.0552 | A(λ = 340 nm) (50 μM, DARK, 3.5 min): 0.0734 | A(λ = 340 nm) (50 μM, DARK, 4.0 min): 0.0926 | A(λ = 340 nm) (50 μM, DARK, 4.5 min): 0.1046 | A(λ = 340 nm) (50 μM, DARK, 5.0 min): 0.1139 | A(λ = 340 nm) (50 μM, DARK, 5.5 min): 0.1209 | A(λ = 340 nm) (50 μM, DARK, 6.0 min): 0.1269 | A(λ = 340 nm) (50 μM, DARK, 6.5 min): 0.1284 | A(λ = 340 nm) (50 μM, DARK, 7.0 min): 0.1262 | A(λ = 340 nm) (50 μM, DARK, 7.5 min): 0.1379 | A(λ = 340 nm) (50 μM, DARK, 8.0 min): 0.1338 | A(λ = 340 nm) (50 μM, DARK, 8.5 min): 0.1359 | A(λ = 340 nm) (50 μM, DARK, 9.0 min): 0.1367 | A(λ = 340 nm) (50 μM, DARK, 9.5 min): 0.1374 | A(λ = 340 nm) (50 μM, DARK, 10.0 min): 0.1397 | A(λ = 340 nm) (50 μM, DARK, 10.5 min): 0.1370 | A(λ = 340 nm) (50 μM, DARK, 11.0 min): 0.1405 | A(λ = 340 nm) (50 μM, DARK, 11.5 min): 0.1417 | A(λ = 340 nm) (50 μM, DARK, 12.0 min): 0.1402 | A(λ = 340 nm) (50 μM, DARK, […]): 0.0305 | tubulin polymerisation inhibition (390 nm irradiation): very strongly inhibited | tubulin polymerisation inhibition (in the dark): not inhibited
